Measurements taken from US20080010691A1, “Method of Screening Therapeutic Agent for Irritable Bowel Syndrome” (priority 2005, published 2008).
Counter-ions that a name gives are not always drawn. Marks after values point to notes of the source that are not given here.

Columns and labels:
[1] = system: conditioned fear stressed animal model (abnormal evacuation); experiment: Conditioned fear stress (CFS)-induced abnormal evacuation, wet feces weight; format: in vivo, rat; conditions: oral administration 1 hour before CFS loading; 30 minutes CFS; linear regression, n=12
Text: (§1) Male Sprague-Dawley rats (6 weeks of age, CLEA Japan) were used. The rats which passed 1 week or more after their receipt were divided into groups of 12 animals per group in such a manner that their average values and standard deviations of body weight became almost the same. The electric shock conditions were set in accordance with the results of preliminary examinations. That is, the rats were put into an electric shock device (17×17×39 cm, CB 2000 type, O'Hara) having an electrode set in the floor, and after 3 seconds of warning sound, their conditioning was carried out by applying an electric current of 2 mA at the maximum for 5 seconds per once per minute, a total of 15 times, and irradiating light at the time of the electric shock using 3 electric bulbs of 40 w. The control group was put into the electric shock device by the same protocol, but without applying the electric shock. From 18 to 24 hours thereafter, each drug to be tested was orally administered to each animal by force at a dose of 5 mL/kg, they were again put into the electric shock device 1 hour thereafter, and then a conditioned fear stress (CFS) loading was carried out by applying 3 seconds of warning sound and subsequent 5 seconds of light irradiation for 30 minutes.
The number of evacuations was recorded after 2, 4, 6, 8, 10, 15, 20, 25 and 30 minutes of the commencement of the CFS loading, and wet weights of feces were measured by recovering the feces at the time of the completion of the measurement. In addition, the feces were dried at 70° C. for 22 hours and then their dry weights were measured to calculate the moisture content. In this connection, the evacuations just after putting them into the measuring device were excluded from the measured values of the number of evacuations and feces weights.

[2] = system: conditioned fear stressed animal model (distal large intestine transport); experiment: Distal large intestine transport ability by beads discharge method after CFS loading; format: in vivo, rat; conditions: control group 13.70, normal group 0.38
Procedure: (§2) Male Sprague-Dawley rats (6 to 7 weeks of age, CLEA Japan) were used. The rats which passed about 1 week after their receipt were used in the test by 12 animals per group. The electric shock conditions were set in accordance with Example 1. That is, the rats were put into an electric shock device (17×17×39 cm, CB 2000 type, O'Hara) having an electrode set in the floor, and after 3 seconds of warning sound, their conditioning was carried out by applying an electric current of 2.5 mA for 5 seconds per minute per once, a total of 15 times, and irradiating light at the time of the electric shock using 3 electric bulbs of 40 w. The normal group was put into the electric shock device by the same protocol, but without applying the electric shock. From 20 to 24 hours thereafter, each drug to be tested was orally administered to each animal by force at a dose of 5 mL/kg, they were again put into the electric shock device 1 hour thereafter, and then a conditioned fear stress (CFS) loading was carried out by applying 3 seconds of warning sound and subsequent 5 seconds of light irradiation for 30 minutes.
Measurement of large intestine transport ability by a beads discharge method was carried out by modifying the method of Negri et al. (British Journal of Pharmacology, 1999, no. 128, p. 1554-60). That is, under light ether anesthesia, silicon beads (3 mm in diameter) were inserted in a length of 3 cm into the rectum side from the anus part using a silicon rod. After waking, the silicon rod was immediately removed to carry out CFS loading. The CFS loading starting time and silicon beads discharging time were recorded, and the measurement finishing time was set to 90 minutes in CFS group and 8 hours in normal group after the starting of the measurement. The distal large intestine transport ability (mm/min) was calculated as 30 mm÷required beads discharge time (min).

[3] = system: conditioned fear stressed animal model (proximal large intestine transport); experiment: Proximal large intestine transport ability by marker method after CFS loading; format: in vivo, rat; conditions: 30 minutes after CFS loading
Procedure: as §2, with “test.” for “test by 12 animals per group.”
Measurement of proximal large intestine transport ability by a marker method was carried out by modifying the method of Kadowaki et al. (Journal of Pharmacology and Experimental Therapeutics, 1993, vol. 266, p. 74-80). That is, abdominal part of each rat was subjected to median incision (about 1 cm) under pentobarbital (50 mg/kg ip) anesthesia, and the ileocecal junction was extracted. A large intestinal part of about 1 cm from the connecting part was extracted from the neck by inserting canula (SP 50). The animals were individually reared for 5 days until the test, under conditions of free ingestion and free drinking. A Carmine Red solution (0.2 mL of 0.5% methyl cellulose solution containing 3 g of Carmine Red and 5 g of acacia) was injected trough the canula, CFS was loaded for 30 minutes by the aforementioned method, and then the animals were sacrificed by a decapitation device. By quickly carrying out median incision, large intestine starting part-anus part was extracted, and the whole length and marker shifting distance were measured using the canula insertion part as the starting point. The large intestine transport ability (%) was calculated as (marker shifting distance)÷(whole length)×100.

[4] = system: conditioned fear stressed animal model (freezing behavior); experiment: CFS-induced freezing behavior; format: in vivo, rat; conditions: oral; for influence upon CFS-induced freezing behavior: 30 minutes observation after CFS loading, all of the doses tested
Text: as §1
Regarding the measurement of freezing behavior (freezing), a case of not moving at all during 30 seconds other than the movement accompanied by breathing was evaluated as the freezing behavior. The evaluation times were set to 0, 1, 3, 5, 7, 9, 12, 13, 14, 17, 18, 19, 22, 23, 24, 27, 28 and 29 minutes after the CFS loading, and the measurement was carried out at intervals of 30 seconds per minute. The ratio (%) of showing the freezing behavior by each animal was calculated in 3 plots of from 0 to 9 minutes (Block 1), from 10 to 19 minutes (Block 2) and from 20 to 29 minutes (Block 3) after the loading.

[5] = system: conditioned fear stressed animal model; conditions: cited from earlier work; for freezing behavior: reported in the literature (Non-patent References 4-7)

SMILES	ED50 value of the controlling ratio of wet feces weights increased by CFS loading [1] [mg/kg]	influence upon CFS-induced freezing behavior [4]	freezing behavior [5]	also measured
Cc1[nH]cnc1CN1CCc2c(c3ccccc3n2C)C1=O [Alosetron hydrochloride, alosetron hydrochloride]	0.078	did not exert influence		Distal large intestine transport ability ([2]; dose 0.3 mg/kg oral): 5.04* mm/min; proximal large intestine transport rate increased by the CFS loading ([3]; 0.3 mg/kg oral): lowered
Cc1nccn1C[C@H]1CCc2c(c3cccc4c3n2CCC4)C1=O [Cilansetron hydrochloride, cilansetron hydrochloride]	0.094	did not exert influence		Distal large intestine transport ability ([2]; dose 0.3 mg/kg oral): 5.06** mm/min; proximal large intestine transport rate increased by the CFS loading ([3]; 0.3 mg/kg oral): lowered
CN(C)C(=O)C(CCN1CCC(O)(c2ccc(Cl)cc2)CC1)(c1ccccc1)c1ccccc1 [Loperamide hydrochloride, loperamide hydrochloride]	9.000			Distal large intestine transport ability ([2]; dose 10 mg/kg oral): 3.64** mm/min; proximal large intestine transport rate increased by the CFS loading ([3]; 10 mg/kg oral): lowered; freezing behavior-expressing time of 20 to 29 minutes after CFS loading (Block 3) ([4]; action significant at a dose of 30 mg/kg): dose-dependently prolonged
Cn1cc(C(=O)[C@@H]2CCc3nc[nH]c3C2)c2ccccc21 [Ramosetron hydrochloride, ramosetron hydrochloride]	0.012	did not exert influence		Distal large intestine transport ability ([2]; dose 0.1 mg/kg oral): 4.93** mm/min; proximal large intestine transport rate increased by the CFS loading ([3]; 0.1 mg/kg oral): lowered
CN1C(=O)CN=C(c2ccccc2)c2cc(Cl)ccc21 [diazepam]			suppressed	
CNCCC(Oc1ccc(C(F)(F)F)cc1)c1ccccc1 (centres unmarked) [fluoxetine]			suppressed	bowel movement ([5]; reported in the literature (Non-patent References 5-7)): suppressed
Cc1ncc2n1-c1ccc(Cl)cc1C(c1ccccc1F)=NC2 [midazolam]			suppressed	
